Laboratory results published in patent publication US11858951B2, “Boronic acid derivatives” (Merck Patent GmbH, priority 2017, dated 2024).

Legend:
[1] = target: LMP7 (purified human immuno proteasome) (Homo sapiens, UniProt P28062); test: Determination of LMP7 activity (fluorescence intensity assay, Suc-LLVY-AMC); format: biochemical; conditions: for Selectivity LMP7 vs Beta5: LMP7 versus Beta5, incubation for 20 minutes; for IC50: incubation for 20 minutes at 25° C., concentrations 30 μM to 15 pM, read-out: LMP7 IC50
Experimental: Biological Activity Determination of LMP7 Activity:
Measurement of LMP7 inhibition is performed in 384 well format based on fluorescence intensity assay.
(§1) Purified human immuno proteasome (0.25 nM) and serial diluted compounds in DMSO (range of concentrations from 30 μM to 15 pM) or controls are incubated for 20 minutes or 120 minutes (long incubation) at 25° C. in assay buffer containing 50 mM Tris pH 7.4, 0.03% SDS, 1 mM EDTA and 1% DMSO. The reaction is initiated by the addition of the fluorogenic peptide substrate, Suc-LLVY-AMC (Bachem 1-1395), at a concentration of 40 μM. After 60 minutes of incubation at 37° C., fluorescence intensity is measured at λex=350 nm and λem=450 nm with a fluorescence reader (Perkin Elmer Envision reader or equivalent).
(§2) Unless indicated otherwise the results are obtained after incubation for 20 minutes.

[2] = target: Beta5 (purified human constitutive proteasome) (Homo sapiens, UniProt P28074); test: Determination of Beta5 activity (fluorescence intensity assay, Suc-LLVY-AMC); format: biochemical; conditions: incubation for 20 minutes at 25° C.; concentrations 30 μM to 15 pM; read-out: Beta5 IC50
Experimental: Determination of Beta5 Activity:
Measurement of Beta5 inhibition is performed in 384 well format based on fluorescence intensity assay.
as §1, with “constitutive” for “immuno”, “(1.25” for “(0.25”
as §2

[3] = target: LMP7 subunit of the immunoproteasome (Homo sapiens, UniProt P28062); conditions: background, Singh et al 2011; cited from earlier work

Row | SMILES | Selectivity LMP7 vs Beta5 [1] | IC50 [1] [µM] | IC50 [2] [µM] | selectivity for the LMP7 subunit of the immunoproteasome [3] [fold]
1 | O=C(N[C@@H](Cc1coc2ccccc12)B(O)O)C1C[C@H]2O[C@@H]1c1ccccc12 (stereo partly drawn) [compound 22, [(1R)-2-(1-benzofuran-3-yl)-1-{[(1R,8S)-11-oxatricyclo[6.2.1.0^2,7]undeca-2(7),3,5-trien-9-yl]formamido}ethyl]boronic acid] | ++ (100 ≤ Selectivity < 300) | < 0.05 | 5 to 30 | 
2 | C[C@]12CC[C@](C(=O)N[C@@H](C[C@@H]3COc4ccccc43)B(O)O)(O1)c1ccccc12 [compound 21, [(1R)-2-[(3S)-2,3-dihydro-1-benzofuran-3-yl]-1-{[(1S,8R)-8-methyl-11-oxatricyclo[6.2.1.0^2,7]undeca-2,4,6-trien-1-yl]formamido}ethyl]boronic acid] | +++++ (Selectivity ≥700) | < 0.05 | 5 to 30 | 
3 | O=C(N[C@@H](CCc1ccccc1)B(O)O)[C@@H]1C[C@H]2CC[C@@H]1O2 [compound 27, [(1R)-1-{[(1S,2R,4R)-7-oxabicyclo[2.2.1]heptan-2-yl]formamido}-3-phenylpropyl]boronic acid] |  | 0.5 to 5 | > 30 | 
4 | CC1=C(C(=O)N[C@H](C)C(=O)N[C@@H](Cc2c[nH]c3ccccc23)C(=O)N[C@@H](Cc2ccccc2)C(=O)[C@@]2(C)CO2)Cc2ccccc21 [PR-924] |  |  |  | 100
5 | O=C(N[C@@H](C[C@@H]1COc2ccccc21)B(O)O)[C@]12CC[C@H](O1)c1ccccc12 [compound 16, [(1R)-2-[(3S)-2,3-dihydro-1-benzofuran-3-yl]-1-{[(1R,8S)-11-oxatricyclo[6.2.1.0^2,7]undeca-2(7),3,5-trien-1-yl]formamido}ethyl]boronic acid] | +++++ (Selectivity ≥700) | < 0.05 | 5 to 30 | 
6 | O=C(N[C@@H](Cc1coc2ccccc12)B(O)O)C1C[C@@H]2O[C@H]1c1ccccc12 (stereo partly drawn) [compound 24, [(1R)-2-(1-benzofuran-3-yl)-1-{[(1S,8R)-11-oxatricyclo[6.2.1.0^2,7]undeca-2(7),3,5-trien-9-yl]formamido}ethyl]boronic acid] | + (Selectivity <100) | < 0.05 | 0.05 to 0.5 | 
7 | O=C(N[C@@H](Cc1coc2ccccc12)B(O)O)[C@H]1C[C@@H]2CC[C@H]1O2 [compound 8, [(1R)-2-(1-benzofuran-3-yl)-1-{[(1R,2S,4S)-7-oxabicyclo[2.2.1]heptan-2-yl]formamido}ethyl]boronic acid] | ++++ (500 ≤ Selectivity < 700) | < 0.05 | 5 to 30 | 
8 | Cc1cccc2c1OC[C@H]2C[C@H](NC(=O)[C@@H]1C[C@H]2CC[C@@H]1O2)B(O)O [compound 15, [(1R)-2-[(3S)-7-methyl-2,3-dihydro-1-benzofuran-3-yl]-1-{[(1S,2R,4R)-7-oxabicyclo[2.2.1]heptan-2-yl]formamido}ethyl]boronic acid] | +++++ (Selectivity ≥700) | < 0.05 | 5 to 30 | 
9 | CC(C)C[C@H](NC(=O)[C@@H]1C[C@H]2CC[C@@H]1O2)B(O)O [compound 28, [(1R)-3-methyl-1-{[(1S,2R,4R)-7-oxabicyclo[2.2.1]heptan-2-yl]formamido}butyl]boronic acid] |  | 0.5 to 5 | > 30 | 
10 | Cc1cccc2c(C[C@H](NC(=O)[C@@]34CC[C@@H](O3)c3ccccc34)B(O)O)coc12 [compound 20, [(1R)-2-(7-methyl-1-benzofuran-3-yl)-1-{[(1S,8R)-11-oxatricyclo[6.2.1.0^2,7]undeca-2,4,6-trien-1-yl]formamido}ethyl]boronic acid] | ++++ (500 ≤ Selectivity < 700) | < 0.05 | 5 to 30 | 
11 | Cc1ccc(C[C@H](NC(=O)[C@@H]2C[C@H]3CC[C@@H]2O3)B(O)O)c(C)c1 [compound 25, [(1R)-2-(2,4-dimethylphenyl)-1-{[(1S,2R,4R)-7-oxabicyclo[2.2.1]heptan-2-yl]formamido}ethyl]boronic acid] | ++ (100 ≤ Selectivity < 300) | 0.05 to 0.5 | 5 to 30 | 
12 | C[C@@]12CC[C@@](C(=O)N[C@@H](C[C@@H]3COc4ccccc43)B(O)O)(O1)c1ccccc12 [compound 23, [(1R)-2-[(3S)-2,3-dihydro-1-benzofuran-3-yl]-1-{[(1R,8S)-8-methyl-11-oxatricyclo[6.2.1.0^2,7]undeca-2,4,6-trien-1-yl]formamido}ethyl]boronic acid] | +++++ (Selectivity ≥700) | < 0.05 | 5 to 30 | 
13 | O=C(N[C@@H](C[C@@H]1COc2ccccc21)B(O)O)[C@@]12CC[C@@H](O1)c1ccccc12 [compound 18, [(1R)-2-[(3S)-2,3-dihydro-1-benzofuran-3-yl]-1-{[(1S,8R)-11-oxatricyclo[6.2.1.0^2,7]undeca-2(7),3,5-trien-1-yl]formamido}ethyl]boronic acid] | +++++ (Selectivity ≥700) | < 0.05 | 5 to 30 | 
